Where “and” joins values, the source holds several entries; their conditions need not be identical. Equal entries are not always repeated. Where two headings read alike, the source gives them in different places.
How the values were obtained:
[1] = test system: T. b. brucei Lister 427 (wild-type); experiment: Drug susceptibility test, Lister 427WT (resazurin); assay type: cell-based; conditions: Trypanosoma brucei, read-out: Lister-427 EC50
Description: (§1) Fluorescence was determined using a FLUOstar Optima (BMG Labtech, Durham, N.C.) and the results fitted to a sigmoid curve with variable slope using Prism 5.0 (GraphPad, San Diego, Ca).

T. b. brucei B48 = experiment: microbe, parasite or virus in culture; assay type: cell-based, Trypanosoma brucei brucei; conditions: for EC50: Trypanosoma brucei, read-out: B48 EC50; for RF (resistance factor) B48: ratio of EC50 between B48 and Lister-427
Description: as §1

T. b. brucei TbAT1-KO = experiment: microbe, parasite or virus in culture; assay type: cell-based, Trypanosoma brucei brucei; conditions: for EC50: Trypanosoma brucei, read-out: TbAT1-KO EC50; for RF (resistance factor) TbAT1-KO: ratio of EC50 between TbAT1-KO and Lister-427
Description: as §1

T. b. brucei ISMR1 = experiment: microbe, parasite or virus in culture; assay type: cell-based, Trypanosoma brucei brucei; conditions: for EC50: Trypanosoma brucei, read-out: ISMR1 EC50; for RF (resistance factor) ISMR1: ratio of EC50 between ISMR1 and Lister-427
Description: as §1

T. brucei Squib 427 = experiment: In vitro drug susceptibility, T. brucei Squib 427 (resazurin); assay type: cell-based, Trypanosoma brucei brucei; conditions: for selectivity index (SI) for T. b. brucei: MRC-5 versus T. b. brucei
Description: (§2) All trypanosome strains were cultured in the standard HMI-9 medium supplemented with 10% fetal bovine serum (FBS) at 37° C. in a 5% CO2 atmosphere.

[2] = test system: T. cruzi Tulahuen CL2 β galactosidase strain; experiment: T. cruzi Tulahuen CL2 β galactosidase strain on MRC-5SV2 cells (CPRG); assay type: cell-based, Trypanosoma cruzi
Description: All cultures and assays were conducted at 37° C./5% CO2. […] The results were expressed as % reduction in parasite burdens compared to control wells from which an EC50 was calculated.

[3] = test system: T. vaginalis trophozoites (metronidazole susceptible G3 strain); experiment: Trichomonas vaginalis in vitro assay; assay type: cell-based; conditions: average of 2-5 independent replicates
Description: T. vaginalis trophozoites (metronidazole susceptible G3 strain) were grown in vitro in modified Diamond's media (MDM) with 10% heat inactivated horse serum (HIHS) acquired from Gibco Life Technologies. After medium preparation, the pH was adjusted to 6.3-6.4 employing 1.0 M aq. HCl. Parasites cultures were passaged every day by taking 1 mL of cell culture into a 25 mL bottle of fresh media to ensure the cells were kept at the appropriate concentration of ˜2×10^6 cells/mL. The culture flasks were filled completely and tightly capped to provide the cells with an anaerobic environment. The parasites were maintained in incubation at 37° C. When culturing in multiwell plates, the plates were sealed with Nescofilm® and inserted in BD GasPak EZ pouches (BD Diagnostics, UK) in order to create anaerobic conditions. Assays were performed with 5×10^4 trophozoites/well (100 μL) to which compound dilutions were added (100 μL). Outside wells of columns and rows were filled with 200 μL of sterile water. Plates were sealed with Nescofilm® and incubated under anaerobic conditions as described above. After 24 h, 30 μL of assay dye solution (resorufin) was added, and incubated for 1-2 h before being read using Fluostar Optima (BMG Labtech, UK) at an excitation wavelength of 544 nm and an emission wavelength of 620 nm.

MRC-5 fibroblasts = experiment: Cytotoxicity against MRC-5 fibroblasts; conditions: read-out: MRC-5 EC50, cytotoxicity
Description: (§3) Cytotoxicity was assayed against MRC-5 fibroblasts. Results are depicted in Tables 4 and 5.

[4] = test system: T. b. rhodesiense STIB-900; experiment: In vitro drug susceptibility, T. b. rhodesiense STIB-900 (resazurin); assay type: cell-based, Trypanosoma brucei rhodesiense
Description: as §2

T. b. brucei Squib 427 = experiment: In vivo antiparasitic activity in mice (T. brucei; acute model); design: species or system Trypanosoma brucei brucei; conditions: for clinical symptoms of trypanosomiasis / parasitemia: infected mice, 5 consecutive days, test compound 25 mg/kg PO b.i.d. (FH7429_D also 10 mg/kg s.i.d. IP), suramin 10 mg/kg
Description: The test compound of the invention was formulated in 10% (V/V) PEG400 in water at 2 mg/mL and was freshly prepared at every administration. The test compound was administered orally (PO) b.i.d. for 5 days at 25 mg/kg. The reference drug suramin was formulated in PBS at 2.5 mg/mL and administered s.i.d. IP for 5 days at 10 mg/kg. Treatment was initiated ½ hour prior to the IP infection.

[5] = Cytotoxicity against MRC-5 fibroblasts; conditions: human
Description: as §3

[6] = Trypanosoma brucei, read-out: T.b. brucei EC50, Table 4, average of 2-6 independent determinations
[7] = Trypanosoma cruzi, TULAHUEN, MRC-5 SV2, Table 5, average of 2-4 independent replicates
[8] = Trypanosoma brucei, RHODESIENSE, read-out: T.b. rhod. EC50
[9] = Trypanosoma brucei, read-out: EC50 against T. brucei
[10] = MRC-5 fibroblasts, MRC-5 EC50, Table 4, cytotoxicity
[11] = MRC-5 fibroblasts, MRC-5 EC50, Table 5, cytotoxicity
[12] = Table 1, average of 2-4 independent determinations, read-out: T. brucei brucei EC50
[13] = Table 2, average of 2-3 independent replicates
[14] = Table 1, average of 2-4 independent determinations, read-out: T. brucei rhod. EC50

Row | SMILES | EC50 [1] [nM] | EC50 (T. b. brucei B48) [nM] | EC50 (T. b. brucei TbAT1-KO) [nM] | RF (resistance factor) TbAT1-KO (T. b. brucei TbAT1-KO) | EC50 (T. b. brucei ISMR1) [nM] | EC50 (T. brucei Squib 427; [6]) [nM] | EC50 [2, 7] [nM] | EC50 [4, 8] [nM] | EC50 ([3]; Trichomonas vaginalis, Table 6) [nM] | melting point | EC50 [5, 10] [nM] | EC50 [5, 11] [nM] | other results
1 | CC[n+]1c(-c2ccccc2)c2cc(N/N=N/c3cccc(C(=N)N)c3)ccc2c2ccc(N)cc21 [Isometamidium] | 650 ± 85 | 560 ± 130 | 750 ± 140 | 1.2 | 3100 ± 500 |  |  |  |  |  |  |  | RF (resistance factor) B48 (T. b. brucei B48): 0.85; RF (resistance factor) ISMR1 (T. b. brucei ISMR1): 4.81
2 | Nc1ncnc2c1c(-c1ccc3ccccc3c1)cn2[C@@H]1O[C@H](CO)[C@@H](O)[C@H]1O [FH8461, 4-amino-5-(2-naftyl)-N7-(β-D-ribofuranosyl)-pyrrolo[2,3-d]pyrimidine] |  |  |  |  |  |  |  |  |  |  |  |  | EC50 (T. brucei Squib 427; Table 4, average of 2-6 independent determinations, read-out: T.b. brucei EC50): 7830 nM; EC50 ([2]; Table 5, average of 2-4 independent replicates): 2480 nM; EC50 ([3]; Table 6): 580 nM; EC50 (MRC-5 fibroblasts; Table 4): 7530 nM; EC50 (MRC-5 fibroblasts; Table 5): 7530 nM; EC50 ([4]; Table 4, average of 2-6 independent determinations, read-out: T.b. rhod. EC50): 6790 nM
3 | Nc1ncnc2c1c(-c1ccccn1)cn2[C@@H]1O[C@H](CO)[C@@H](O)[C@H]1O [TH1008, 4-amino-5-(pyrid-2-yl)-N7-(β-D-ribofuranosyl)-pyrrolo[2,3-d]pyrimidine] | 170 ± 40 | 270 ± 40 | 400 ± 90 | 2.4 | 430 ± 70 | 360 | 5020 | 31 |  |  |  |  | anti-trypanosomal activity against T. brucei, in words (T. brucei Squib 427): nanomolar antitrypanosomal activity; selectivity index (SI) for T. b. brucei (T. brucei Squib 427): 50; detectability of parasites in the peripheral blood (T. b. brucei Squib 427; 25 mg/kg PO b.i.d. for 5 days): undetectable from 8 dpi onwards; parasites in the peripheral blood, mean Log10 (T. b. brucei Squib 427; 4 dpi, 25 mg/kg PO b.i.d. for 5 days): 7.5; parasitological cure (sub-inoculation in naive mice) (T. b. brucei Squib 427; animals surviving until day 21 post infection): total parasitological cure; clinical symptoms of trypanosomiasis / parasitemia (T. b. brucei Squib 427): no clinical symptoms of trypanosomiasis were observed; adverse drug effects (T. b. brucei Squib 427; mice, 5 days treatment): No signs of adverse drug effects were observed; selectivity index for T. b. rhodesiense ([4]; MRC-5 versus T. b. rhodesiense): ~500; RF (resistance factor) B48 (T. b. brucei B48): 1.6; RF (resistance factor) ISMR1 (T. b. brucei ISMR1): 2.5
4 | Nc1ncnc2c1c(-c1ccc(F)cc1)cn2[C@@H]1O[C@H](CO)[C@@H](O)[C@H]1O [MS1001, 4-amino-5-(4-fluorophenyl)-N7-(β-D-ribofuranosyl)-pyrrolo[2,3-d]pyrimidine] |  |  |  |  |  | 8810 | 490 | 14700 | 110 | 145 to 148 °C (dec.) | > 64000 | > 64000 | EC50 (T. brucei Squib 427; [9]): < 10000 nM
5 | Nc1ncnc2c1ccn2[C@@H]1O[C@H](CO)[C@@H](O)[C@H]1O [FH5284, tubercidin] | 150 ± 30 | 4300 ± 1300 | 2600 ± 700 | > 17 and 17.2 | 1700 ± 500 | 480 | 340 |  |  |  |  |  | EC50 [5]: 2230 nM
6 | COc1ccc(-c2cn([C@@H]3O[C@H](CO)C[C@H]3O)c3ncnc(N)c23)cc1 [FH8494, 4-amino-5-(4-methoxyphenyl)-N7-(3′-deoxy-β-D-ribofuranosyl)-pyrrolo[2,3-d]pyrimidine] |  |  |  |  |  |  |  |  |  |  |  |  | EC50 (T. brucei Squib 427; [12]): 3700 nM; EC50 [2, 13]: 2400 nM; EC50 ([3]; Table 3): 730 nM; EC50 (MRC-5 fibroblasts; Table 1): 24300 nM; EC50 (MRC-5 fibroblasts; Table 2): 24300 nM; EC50 [4, 14]: 1200 nM
7 | Nc1ncnc2c1c(-c1ccc(Cl)c(Cl)c1)cn2[C@@H]1O[C@H](CO)[C@@H](O)[C@H]1O [FH3147, 4-amino-5-(3,4-dichlorophenyl)-N7-(β-D-ribofuranosyl)-pyrrolo[2,3-d]pyrimidine] |  |  |  |  |  | 3070 | 190 | 320 | 20 | 221 to 223 °C | 14700 | 14700 | selectivity index (SI) for T. b. brucei (T. brucei Squib 427): ~5
8 | N=C(N)c1ccc(/N=N/Nc2ccc(C(=N)N)cc2)cc1 [Diminazene] | 420 ± 64 | 7200 ± 1600 | 4500 ± 900 | 10.6 | 2900 ± 420 |  |  |  |  |  |  |  | RF (resistance factor) ISMR1 (T. b. brucei ISMR1): 6.9
9 | Nc1ncnc2c1c(-c1ccc(OC(F)(F)F)cc1)cn2[C@@H]1O[C@H](CO)C[C@H]1O [FH9577, 4-amino-5-(4-trifluoromethoxyphenyl)-N7-(3′-deoxy-β-D-ribofuranosyl)-pyrrolo[2,3-d]pyrimidine] |  |  |  |  |  |  |  |  |  |  |  |  | EC50 (T. brucei Squib 427; [12]): 24500 nM; EC50 [2, 13]: 1390 nM; EC50 ([3]; Table 3): 790 nM; EC50 (MRC-5 fibroblasts; Table 1): 40400 nM; EC50 (MRC-5 fibroblasts; Table 2): 40400 nM; EC50 [4, 14]: 9800 nM
10 | N=C(N)c1ccc(OCCCCCOc2ccc(C(=N)N)cc2)cc1 [Pentamidine] |  | 990 ± 160 | 18 ± 2 | 1.8 | 140 ± 40 |  |  |  |  |  |  |  | EC50 ([1]; reference cell line): 11 ± 1 nM
11 | Nc1ncnc2c1c(-c1cccc(Cl)c1)cn2[C@@H]1O[C@H](CO)[C@@H](O)[C@H]1O [FH8459, 4-amino-5-(3-chlorophenyl)-N7-(β-D-ribofuranosyl)-pyrrolo[2,3-d]pyrimidine] |  |  |  |  |  | 9900 | 1420 | 6880 | 240 | 135 °C | 32800 | 32800 | EC50 (T. brucei Squib 427; [9]): < 10000 nM
12 | Cc1ccc(C(=O)Nc2ccc(S(=O)(=O)O)c3cc(S(=O)(=O)O)cc(S(=O)(=O)O)c23)cc1NC(=O)c1cccc(NC(=O)Nc2cccc(C(=O)Nc3cc(C(=O)Nc4ccc(S(=O)(=O)O)c5cc(S(=O)(=O)O)cc(S(=O)(=O)O)c45)ccc3C)c2)c1 [Suramin, reference compound] |  |  |  |  |  |  |  |  |  |  |  |  | EC50 (T. brucei Squib 427; Trypanosoma brucei, Table 1, average of 2-4 independent determinations, read-out: T. brucei brucei EC50): 50 nM; EC50 (T. brucei Squib 427; Trypanosoma brucei, Table 4, average of 2-6 independent determinations, read-out: T.b. brucei EC50): 50 nM; clinical symptoms of trypanosomiasis / parasitemia (T. b. brucei Squib 427): no symptoms nor parasitemia developed; EC50 ([4]; Trypanosoma brucei, RHODESIENSE, Table 1, average of 2-4 independent determinations, read-out: T. brucei rhod. EC50): 40 nM; EC50 ([4]; Trypanosoma brucei, RHODESIENSE, Table 4, average of 2-6 independent determinations, read-out: T.b. rhod. EC50): 40 nM
13 | Cc1ccc(-c2cn([C@@H]3O[C@H](CO)[C@@H](O)[C@H]3O)c3ncnc(N)c23)cc1 [TH1011, 4-amino-5-(4-methylphenyl)-N7-(β-D-ribofuranosyl)-pyrrolo[2,3-d]pyrimidine] |  |  |  |  |  | 29100 | 1500 |  | 60 | 165 °C | 26200 | 26200 | 

Reference: patent publication US11072628B2, “Nucleoside analogues for the treatment of parasitic infections” (UNIVERSITEIT GENT, priority 2017, dated 2021)
